Earlier results, collected in patent publication US20220354960A1, “IMMUNE CHECKPOINT BLOCKING BISPECIFIC MOLECULES” (THE SCRIPPS RESEARCH INSTITUTE, priority 2019, published 2022).

Tested on: melanoma
Conditions: for three-year survival of patients with melanoma: human, in vivo; for overall survival (>5 years): patients with melanoma

Row | Substance | three-year survival of patients with melanoma | overall survival (>5 years)
1 | Ipilimumab: anti-cytotoxic T-lymphocyte antigen-4 (CTLA-4) antibody | ~70% | ~30%
2 | Pembrolizumab: anti-programmed cell death-1 (PD-1) antibody | ~70% | ~30%
